How the values were obtained:
[1] = test system: 501mel human melanoma cells; experiment: Senescence of 501mel melanoma cells (morphology, SA-b-Gal staining at pH6); type: cell-based; conditions: flattened and enlarged morphology, SA-b-Gal reactivity at pH6
Experimental: (§1) 501mel human melanoma cells and MCF7 human breast cancer cells were grown in DMEM supplemented with 7% FBS at 37° C. in a humidified atmosphere containing 5% CO2. Lipofectamine™ RNAiMAX and opti-MEM medium were purchased from Invitrogen (San Diego, Calif., USA). TNFa and recombinant human CCL2 were from PeproTech Inc (Rocky Hill, N.J.), sulfasalazine and 3-AB from Sigma Chem. Co (St Louis, Mo.), mouse anti-CCL2 from R&D Systems and KU55933 from Calbiochem. The senescence b-galactosidase staining kit from Cell Signaling Technology (Beverly, Mass., USA) was used to histochemically detect b-galactosidase activity at pH6 as previously reported (Giuliano et al. 2010a). The percentage of means and standard deviations were derived from counting 100 cells in duplicate plates after 96 hrs.

IKK2, p53, PARP-1 = experiment: Western blot of 501mel cell extracts (IKK2, p53, poly-(ADP rybosyl)ation); type: cell-based, human
Experimental: Western blots were carried out as previously described (Hilmi et al. 2008). Briefly, cell lysates (30 μg) were separated by SDS-PAGE, transferred on to a PVDF membrane and then exposed to the appropriate antibodies, anti-MITF (Abcam), anti-ERK2 (D-2 Santa Cruz biotechnology), anti-p53 (DO-1, Santa Cruz biotechnology), anti-PARP (Santa Cruz biotechnology), anti-IKK2 and anti-PARP (Cell Signaling Technology Inc.). Horseradish peroxidase-conjugated anti-rabbit or anti-mouse antibodies were from Dakopatts (Glostrup, Denmark). Proteins were visualized with the ECL system (Amersham). The western blots shown are representative of at least 3 independent experiments.

CCL2 = CCL2 ELISA in supernatant of MCF7 cells; type: cell-based, human; design: CCL2 secretion of MCF7 cells: dose or concentration left out as unconfirmed; conditions: for effect on CCL2 secretion of H2O2-treated senescent MCF7 cells: sulfasalazine 500 μM, 3-AB 20 mM
Text: CCL2 level in the supernatant of the different melanoma cell lines, in that of MCF7 cells or in that of 501mel cells transfected with siC or siMi for 96 hrs, in presence or absence of drugs, was quantified by ELISA (R&D systems). Results from two independent experiments were normalized to cell number and expressed as ng/ml/10^6 cells.

MCF7 cells = experiment: Invasion assay, Boyden chamber, naive MCF7 cells; type: cell-based, human
Experimental: (a) Conditioned media of control or senescent MCF7 (H2O2 treated) were added to the lower compartment of Boyden chambers to assess their chemotactic activity. Cells that had migrated to the underside of the upper compartment were stained 24 hrs later with crystal violet and the number of nuclei was counted using NIH-imageJ analysis software. Values represent mean+SD of three independent experiments. (b) ELISA test of CCL2 level in the conditioned media of control MCF7 or MCF7 incubated with H2O2 ([…]) and when indicated with sulfasalazine (500 μM) or 3-AB (20 mM). Data are represented as mean+SD.
(§2) Cell invasion was assessed using a modified Boyden chamber assay with […] pore filter inserts for 24-well plates (BD Bioscience). 501mel cells were seeded on the upper chamber of matrigel-coated trans-well and chemoattractants (conditioned media or recombinant molecules) placed into the lower chamber. Twenty-four hours later, cells adherent to the underside of the filters were fixed with 4% PFA, stained with 0.4% crystal violet and five random fields at ×20 magnification were counted. Results represent the average of triplicate samples from three independent experiments.

MITF = conditions: Mhaidat et al. 2007; Liu et al. 2009; cited from earlier work
[2] = test system: MCF7 human breast cancer cells; experiment: Senescence, DNA damage and NF-kB activation of MCF7 cells; type: cell-based
Experimental: as §1
We next wondered if a similar PARP-1 and NF-kB-assiocated secretome (PNAS) could be observed in non-melanoma cells that have entered a program of senescence. […] Although CCL2 was not expected to be the major component of MCF7's secretome, CCL2 measurement was used as a readout of its formation. […] Together, our result reveal that PNAS during cellular senescence is a common mechanism that relies on activation of the DNA damages/NF-kB signaling cascade in both melanoma and non-melanoma cell lines.

501mel cells = experiment: Invasion assay, matrigel-coated modified Boyden chamber, naive 501mel cells; type: cell-based, human; conditions: recombinant CCL2 100 ng/ml as chemoattractant
Experimental: as §2

NF-kB = NF-kB luciferase reporter assay in 501mel cells; type: cell-based, human
Experimental: 501mel melanoma cells were transiently transfected as previously described using the lipofectamine reagent (Invitrogen) (Bertolotto et al. 1998). Briefly, cells were transiently transfected with 0.3 μg of NF-kB reporter construct and 0.05 μg pCMVbGal to control the variability in transfection efficiency. The transfection medium was changed 6 hours later and when indicated, cells were transfected as described above with 50 nM of siC or siMi and/or siIKK2 or were exposed to drugs. Cells were assayed for luciferase and b-galactosidase activities 48 hours later. Transfections were repeated at least three times.

[3] = test system: p65/RELA subunit of NF-kB; experiment: Immunofluorescence of p65/RelA localization in melanoma cells; type: cell-based, human; conditions: for effect on NF-kB nuclear relocation by MITF-silencing: 3-AB 20 mM, sulfasalazine 500 μM
Experimental: Melanoma cells seeded on glass coverslips in 12-well dishes, were transfected with siC or siMi. When indicated cells were exposed to TNFa (10 ng/ml). Ninety-six hours later, cells were fixed and permeabilized as previously described (Khaled et al. 2003) before being exposed to anti-MITF (Abcam), anti-p65/RelA (Santa Cruz biotechnology), 53BP1 (Bethyl Laboratories) and E-cadherin (BD Transduction Laboratories) antibodies. Cells were washed thrice with PBS, and then incubated for 1 hour with 1:1000 dilution anti-mouse or anti-rabbit Alexa Fluor 488 or Alexa Fluor 594 labeled secondary antibody (Invitrogen, San Diego, Calif., USA) and mounted using Gel/Mount (Biomeda corp., Foster City Calif.). Immunofluorescences were examined and photographed with a Zeiss Axiophot microscope equipped with epifluorescence illumination.

[4] = 3-AB 20 mM, sulfasalazine 500 μM

CCOP(=O)(OCC)C(C)NC(=O)N(CCCl)N=O (centres unmarked) [fotemustine]
senescence of melanoma cells [1]: extended these findings

OO [H2O2]
poly-(ADP rybosyl)ation in melanoma cells (IKK2, p53, PARP-1): increased poly-(ADP rybosyl)ation
CCL2 secretion of MCF7 cells (CCL2; H2O2): resulted in CCL2 secretion
invasion of naive MCF7 cells toward supernatant of treated (senescent) MCF7 (MCF7 cells): enhanced the invasion of naïve MCF7 cells
MITF expression (MITF): decreased the expression of MITF
DNA damage in MCF7 cells (gH2AX labeling) [2]: DNA damage induction
NF-kB activity in MCF7 cells (nuclear localization of p65/RELA) [2]: stimulation of NF-kB activity
senescence of MCF7 cells ([2]; morphological changes, SA-b-galactosidase, p53 and p21): underwent senescence
senescence of melanoma cells [1]: underwent premature senescence

CCL2: recombinant human CCL2 from PeproTech, chemokine
invasive capability of naive 501mel cells (501mel cells): stimulated the invasive capability

O=C(O)c1cc(/N=N/c2ccc(S(=O)(=O)Nc3ccccn3)cc2)ccc1O [sulfasalazine]
effect on IKK2 up-regulation mediated by MITF silencing (IKK2, p53, PARP-1; western blot): abrogated
effect on p53 up-regulation mediated by MITF silencing (IKK2, p53, PARP-1; western blot): modestly affected
effect on CCL2 secretion of H2O2-treated senescent MCF7 cells (CCL2): impaired
effect on stimulation of NF-kB transcriptional activity by MITF-silencing (NF-kB; [4]): no longer able
effect on activation of the NF-kB reporter gene by siMITF or TNFa (NF-kB; sulfasalazine 500 μM, siIKK2 co-knockdown): prevented activation of the NF-kB reporter gene
effect on NF-kB nuclear relocation by MITF-silencing [3]: no longer able to relocate NF-kB to the nucleus

TNFa
NF-kB transcriptional activity (luciferase reporter) (NF-kB; 501mel cells, TNFα 10 ng/ml, FMT 40 mM, TMZ 900 nM, H2O2 100 mM): up-regulated
cellular localization of p65/RELA ([3]; TNFa 10 ng/ml): p65 relocalized to the nucleus

NC(=O)c1cccc(N)c1 [3-AB, 3-aminobenzamide]
effect on p53 up-regulation mediated by MITF silencing (IKK2, p53, PARP-1; western blot): almost completely abrogated
effect on CCL2 secretion of H2O2-treated senescent MCF7 cells (CCL2): impaired
effect on NF-kB transcriptional activity stimulated by oxidative stress and chemotherapeutic drugs (NF-kB; 3-AB 20 mM, FMT 40 mM, TMZ 900 nM, H2O2 100 mM): prevented
effect on stimulation of NF-kB transcriptional activity by MITF-silencing (NF-kB; [4]): no longer able
effect on NF-kB nuclear relocation by MITF-silencing [3]: no longer able to relocate NF-kB to the nucleus

Reference: patent US20140199292A1, “COMPOSITIONS AND METHODS FOR INHIBITING TUMOR DEVELOPMENT CAUSED BY CHEMOTHERAPY INDUCED SENESCENCE” (INSERM (Institut National de la Sante et de la Recherche …, priority 2011, published 2014)
